One data set relates to M. extorquens (cymR2). In kind it is cell-based, Methylobacterium extorquens. To be noted: cumate 1-30 μg/ml. How it is done:
M. extorquens (ATCC 55366) was used for the preparation of the heterologous gene expression host. E. coli strain Top10 was used for cloning and propagation of recombinant DNA and S17-1λpir (recA, thi, pro, hsdR^−M^+ RP4:2-Tc:Mu:Km Tn7, pir lysogen; Sm^R, Tp^R) was used for propagation of the helper plasmid (23). E. coli was cultured in Luria Bertani broth (LB) at 37° C. Strain of M. extorquens was grown in CHOI medium, as previously described (17) and 1% (v/v) methanol was used as sole carbon source. Both media were solidified by 1.8% agar (Difco) when appropriate. Antibiotics were used for E. coli and M. extorquens at the following concentrations (in ug/ml): ampicillin, 100; kanamycin (Km), 40; tetracyclin (Tc), 35.
(§1) To test the optimal concentration of inducer, cumate, recombinant M. extorquens (cymR2) transformed with pCUM-gfp was grown to mid-log phase (0.8-1.0 units at OD600) at 30° C. followed by induction with cumate at different concentrations. Reporter gene expression was detectable 4 h post induction. Cumate induction was very sensitive since about 47% of reporter gene expression was obtained with 1 μg cumate/ml (FIG. 5). […] Optimum cumate concentration for effective induction of reporter gene expression was 15 μg/ml (ca. 0.1 mM).

For a further data set, the system named is cym and cmt operons. As to conditions: P. putida F1, regulated by cymR; cited from earlier work.
A further data set deals with T1, repressor protein (cymR) (Pseudomonas putida, UniProt O33453).
T1 construct: expressed in transfected cells; host or cells: Methylobacterium extorquens ATCC 55366, strain cymR2 (two cymR copies integrated by mini-Tn7 under PmxaF), carrying pCUM-gfp
The data set is described as follows: cumate induction of gfp reporter gene expression in M. extorquens (cymR2) transformed with pCUM-gfp. In kind it is cell-based, Pseudomonas putida F1. The method, then:
Detection of gene expression Detection of GFP was carried out by fluorescence microscopy, and quantified by using a SPECTRAFluor Plus (TECAN Austria Gmbh, GrodIg, Austria) under excitation and emission wavelengths of 485 and 508 nm, respectively. Concentration of GFP was calculated based on a linear relationship between concentration and fluorescence units determined using solutions of purified GFP (Qbiogene). The biomass (X) was determined by cell dry weight measurement of the samples (Moisture Analyzer MA 30, Sartorius).
as §1
On the technique in general: Reporter assays use an easily measured gene product as a stand-in for the process of interest.

This is an account of results in patent US8216821B2, “Regulation of heterologous recombinant protein expression in methylotrophic and methanotrophic bacteria” (National Research Council of Canada, priority 2005, dated 2012).

T1 sequence (O33453 whole entry): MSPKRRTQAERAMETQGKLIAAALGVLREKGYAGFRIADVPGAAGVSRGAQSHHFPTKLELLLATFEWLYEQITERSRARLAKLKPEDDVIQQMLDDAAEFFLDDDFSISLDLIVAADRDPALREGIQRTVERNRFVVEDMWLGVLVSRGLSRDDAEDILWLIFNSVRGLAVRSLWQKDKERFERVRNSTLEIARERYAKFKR

Regarding `CC(C)c1ccc(C(=O)O)cc1` [cumate, p-isopropylbenzoate], in the data set on M. extorquens (cymR2), the effect on growth result is “No growth difference”. Further, the “induction of cym/cmt operon expression” value in the data set on cym and cmt operons was “Induction is afforded”. For the same molecule, on repressor protein (cymR) (FIG. 5, gfp expression), the “cumate concentration giving maximum gene expression” value was 15-30 μg cumate/ml. Further, the “time post induction at which reporter gene expression was detectable” value on repressor protein (cymR) (cumate at different concentrations) is recorded as 4 h. The “optimum cumate concentration for effective induction of reporter gene expression” value on repressor protein (cymR) (induced at OD600 0.8-1.0, 30° C.) is 15 µg/mL; at repressor protein (cymR) (molar equivalent of 15 μg/ml), “ca. 0.1 mM”. Besides, the “time post induction of maximum GFP expression” value on repressor protein (cymR) (pCUM-GFP clones, FIG. 7a, cumate 15 μg/ml) worked out at 30 h.

Turning to `Cc1ccc(C(C)C)cc1` [p-cymene, p-isopropyltoluene], the “induction of cym/cmt operon expression” value in the data set on cym and cmt operons is on record as “not”.
